Measured values reported in patent US20080200507A1, “Crystalline Non-Solvated Methanesulfonic Acid Salt of 1-(4-(2-Piperidinylethoxy)Phenoxy)-2-(3-Hydroxyphenyl)-6-Hydroxynaphthalene” (priority 2005, published 2008).
Counter-ions that a name gives are not always drawn.

Assays:
[1] = test system: estrogen-induced response (uterine weight/body weight ratio) in female Sprague Dawley (SD) rats; test: 3-Day Rat Uterine Antagonist; format: in vivo; details: 72 h, oral, 3 days, with EE 0.1 mg/kg, two assays, same value on both occasions, read-out: ED50 (inhibition of estrogen-induced uterine weight response)
Description: 3-Day Rat Uterine Antagonist
Female Sprague Dawley (SD) rats, 6 per group and 19 to 21 days of age, are orally treated with ethinyl estradiol (EE; 0.1 mg/kg) and 10, 1, 0.1, or 0.01 mg/kg test compound for 3 days. Test compound is dissolved in 20% w/v β-hydroxycyclodextrin in water and administered by oral gavage in a volume of 0.2 mL daily (15 minutes prior to the EE gavage). Groups of 6 rats are also given vehicle as a negative control and EE alone as a positive control. The animals are fasted overnight following the final dose. On the following morning, the animals are weighed and then euthanized (by carbon dioxide asphyxiation) and the uteri are rapidly collected (via a midline ventral incision), stripped of adipose tissue, removed luminal fluid by blotting onto absorbant paper, and weighed.
Uterine weight/body weight ratios (UWR) are calculated for each animal. The percentage inhibition of the estrogen-induced response is then calculated by the following formula: percent inhibition=100×(UWREE−UWRtest compound/UWREE−UWRcontrol). ED50 values are derived from a semi-log regression analysis of the linear aspect of the dose response curve.

[2] = test system: ovariectomized SD female rats (uterine wet weight, BMC, BMD); test: 8-Week Mature OVX Rat Uterine and Bone Effects; format: in vivo
Description: 8-Week Mature OVX Rat Uterine and Bone Effects
Virgin 6-month-old, SD female rats (Harlan, Ind.) weighing about 270 g are randomized to treatment groups and bilateral ovariectomies are performed using isoflurane anesthesia. Treatment is initiated 3 days after ovariectomy. Groups are orally dosed each day for 8 weeks with GS II mesylate in a vehicle of 20% hydroxypropyl-β-cyclodextrin (Aldrich Chemical Co., Milwaukee, Wis.). Vertebrae and femora are excised at necropsy and the mid-transverse section of the lumbar vertebra L-4 and distal femur metaphysis is scanned in 50% ethanol/saline, using quantitative computed tomography (QCT) (Research M, Norland/Stratec, Pt. Atkinson, Wis.). Cross-sectional area (X-Area), bone mineral content (BMC, mg), and volumetric BMD (vBMD, mg/cm^3) are quantitated, using voxel dimensions of 148×148×500 μm as previously described (Sato M., Bone, 17:157S-162S, 1995). Bone measurements are carried out by computed tomography (CT) scans on the distal femur metaphysis (cancelous bone measurement) and the […] lumbar vertebrae (Sato, 1995 and Sato, et al., J. Med. Chem., 42:1-24, 1999).

[3] = molecular target: endogenous ER receptors in Ishikawa human endometrial tumor cells (Homo sapiens, UniProt P03372); test: Ishikawa Cell Proliferation Assay (alkaline phosphatase endpoint), agonist and antagonist mode; format: cell-based; details: read-out: agonist response (percentage efficacy versus tamoxifen)
Sequence of endogenous ER receptors in Ishikawa human endometrial tumor cells (P03372 whole entry): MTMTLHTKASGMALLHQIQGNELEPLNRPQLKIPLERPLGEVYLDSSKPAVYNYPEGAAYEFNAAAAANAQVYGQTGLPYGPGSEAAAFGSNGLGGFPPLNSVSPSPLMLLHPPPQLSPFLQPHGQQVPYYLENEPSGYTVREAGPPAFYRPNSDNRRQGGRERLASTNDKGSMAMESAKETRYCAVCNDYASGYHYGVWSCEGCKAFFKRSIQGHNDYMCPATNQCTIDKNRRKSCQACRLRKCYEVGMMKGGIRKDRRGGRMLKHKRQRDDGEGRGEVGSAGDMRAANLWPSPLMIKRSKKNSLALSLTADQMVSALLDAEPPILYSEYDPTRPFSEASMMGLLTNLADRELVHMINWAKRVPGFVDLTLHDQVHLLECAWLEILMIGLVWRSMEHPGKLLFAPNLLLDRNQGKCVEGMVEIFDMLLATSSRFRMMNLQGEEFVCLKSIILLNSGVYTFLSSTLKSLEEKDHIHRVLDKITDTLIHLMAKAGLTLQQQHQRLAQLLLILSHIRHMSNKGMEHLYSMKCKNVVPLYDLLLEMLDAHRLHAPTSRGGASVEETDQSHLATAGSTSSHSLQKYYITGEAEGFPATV
Description: Ishikawa Cell Proliferation Assay:
This assay measures cell proliferation in both an agonist mode in the presence of a salt of the present invention alone, and in an antagonist mode in which the ability of a salt of the present invention to block estradiol stimulation of growth is measured. This assay utilizes Ishikawa human endometrial tumor cells and measures agonist and antagonist effects on endogenous ER receptors via an alkaline phosphatase endpoint (Littlefield et al., Endocrinology, 127:2757-2762, 1990). Alkaline phosphatase activity is measured as an endpoint for relative estrogenic stimuli in both an agonist mode and antagonist mode, where the ability of a test compound to block estradiol stimulatory activity is measured (Bramlett, K S, Burris, J., Steroid Biochem. Molec. Biol., 86:27-34, 2003). […]
The plates are dried for 5 minutes and frozen at −70° C. for at least 1 hour. […] After a twenty minute incubation, plates are read on a spectrophotometer at 405 nm. […] For the agonist mode, a percentage efficacy for the test compound is calculated versus the response to 100 nM tamoxifen alkaline phosphatase stimulation as: 100×(test compound-control)/(tamoxifen-control). For the antagonist mode, a percentage efficacy for the test compound is calculated versus E2 (1 nM) alone as: 100×(E2-test compound)/(E2-control).

[4] = Moisture adsorption / hygroscopicity; format: physicochemical
[5] = Salt forms administered to monkeys, blood levels of GS II and its conjugates; format: in vivo; details: compared among crystalline acetate, mesylate, lactate and phosphate salts, methanesulfonate
Description: Four of these salts (the crystalline acetate, mesylate, lactate and phosphate salts of GS II) were administered to monkeys and blood levels of GS II and its conjugates were measured. […] Some additional physical properties of crystalline non-solvated GS II mesylate are disclosed below in Table 1.

[6] = Thermogravimetric analysis (volatiles / weight loss); format: physicochemical; details: 25 to 216° C.
[7] = In situ salt screening, aqueous in situ solubility; format: physicochemical; details: crystalline salts
Description: In general, as aqueous solubility increases, the potential for absorption of the drug in the gut (and ultimate bioavailability) increases as well. Higher bioavailability can result in lower variability in clinical exposure and thus give the physician an advantage in correctly dosing-the patient within the therapeutic window. Using the aqueous in situ solubility as a guide, and the robustness of the same crystalline form isolated via automation, the crystalline mesylate, lactate, tartrate and phosphate salts of GS II were identified as candidates for further evaluation. Separately, the crystalline acetate salt of GS II was identified and also further characterized.

[8] = dose as low as 0.01 mg/kg, 8 weeks (distal femur metaphysis)

**Q.** Which results are given for `Oc1cccc(-c2ccc3cc(O)ccc3c2Oc2ccc(OCCN3CCCCC3)cc2)c1` [crystalline non-solvated GS II mesylate, 1-(4-(2-piperidinylethoxy)phenoxy)-2-(3-hydroxyphenyl)-6-hydroxynaphthalene, methanesulfonate]?
**A.** ED50 [1]: 0.22 mg/kg; BMC changes in the vertebrae ([2]; 8 weeks, lumbar vertebra): statistical significance for BMC changes were not achieved; BMD preservation in the vertebrae ([2]; 8 weeks, lumbar vertebra): BMD preservation was also seen; uterine stimulation over OVX control ([2]; 10-mg/kg dose, 8 weeks, in comparison to ovary intact (sham operated) rats): 8.7%; preservation of BMC [2, 8]: significant preservation; preservation of BMD [2, 8]: significant preservation; Changes in uterine wet weight ([2]; oral daily, after 8 weeks of treatment): minimal; Emax [3]: 13.8%; hygroscopicity [4]: non-hygroscopic; % Moisture Adsorbed @80% RH ([4]; 80% RH): <1%; in vivo exposure of GS II (ng hr/ml of GS II and of its conjugates) ([5]; listed as crystalline mesylate salt): largest in vivo exposure; in vivo exposure of GS II (ng hr/ml of GS II and of its conjugates) [5]: significant in vivo exposure; % Volatiles (Thermo Gravimetric Analysis) [6]: <1% (25 to 216° C.)

**Q.** Which “in situ aqueous solubility” value [7] does the source give for fumarate here?
**A.** relatively low

**Q.** With tosylate as the compound, how does the “in situ aqueous solubility” value [7] read?
**A.** relatively low
